Reference: US9169288B2, “Peptidomimetics and their application” (Instytut Medycyny Doswiadczalnej i Klinicznej im. Miroslawa …, priority 2012, dated 2015)
Where two headings read alike, the source gives them in different places.

Tests used:
Details in all cases: mouse, at 4 hours
[1] = system: constipation induced by loperamide
Method: The mice were divided into three groups one as control and two administered with loperamide hydrochloride (5 mg/kg).

[2] = system: constipation induced by loperamide; remark: listed apart in the source
[3] = system: constipation induced by morphine
Method: The mice were divided into three groups one as control and two administered intraperitoneally with morphine hydrochloride (5 mg/kg).

CN(C)C(=O)C(CCN1CCC(O)(c2ccc(Cl)cc2)CC1)(c1ccccc1)c1ccccc1 [loperamide, reference compound]
wet weight of stools, opioid alone ([1]; loperamide hydrochloride 5 mg/kg alone, control group 200 mg): 15 mg
wet weight of stools, opioid alone ([2]; loperamide 5 mg/kg orally in 20% gum arabic alone, control group 200 mg): 22 mg

CN1CC[C@]23c4c5ccc(O)c4O[C@H]2[C@@H](O)C=C[C@H]3[C@H]1C5 [morphine, reference compound]
wet weight of stools, opioid alone ([3]; morphine hydrochloride 5 mg/kg intraperitoneally alone, control group 200 mg): 25 mg

Tyrosyl-D-arginyl-cinnamylpiperazine dihydrochloride [peptidomimetic 3]
stools relative to control group ([2]; loperamide 5 mg/kg with peptidomimetic 10 mg/kg in 20% gum arabic): 60%
wet weight of stools ([2]; loperamide 5 mg/kg with peptidomimetic 10 mg/kg in 20% gum arabic, control group 200 mg): 120 mg

tyrosyl-D-alanyl-glycyl-cinnamylpiperazine hydrochloride [peptidomimetic 1]
stools relative to control group ([1]; peptidomimetic 10 mg/kg orally 30 minutes before loperamide hydrochloride 5 mg/kg): 80%
wet weight of stools ([1]; peptidomimetic 10 mg/kg orally 30 minutes before loperamide hydrochloride 5 mg/kg, control group 200 mg): 160 mg

tyrosyl-D-threonyl-glycyl-phenylalanyl-cinnamylpiperazine hydrochloride [peptidomimetic 2]
reversal of morphine effect on stools ([3]; peptidomimetic orally 30 minutes before morphine hydrochloride 5 mg/kg intraperitoneally): fully reversed morphine effect
